± gives the expanded uncertainty stated by the source.
Assay: xn = mol fraction of the nth substance listed
Conditions: 101.33 kPa, Liquid

CN1CCNCC1 [N-methylpiperazine] + CC(C)O
Conditions	mass density, 293.15 K [kg/m3]	mass density, 298.15 K [kg/m3]	mass density, 303.15 K [kg/m3]	viscosity, 293.15 K [mPa·s]	viscosity, 298.15 K [mPa·s]	viscosity, 303.15 K [mPa·s]
x2 = 0	903.78 ± 0.36	899.8 ± 0.37	894.54 ± 0.38	2.1 ± 0.024	1.841 ± 0.021	1.624 ± 0.019
x2 = 0.0998	897.99 ± 0.37	893.98 ± 0.38	888.87 ± 0.39	2.261 ± 0.026	1.967 ± 0.023	1.733 ± 0.02
x2 = 0.1988	891.42 ± 0.38	887.39 ± 0.39	882.45 ± 0.4	2.393 ± 0.027	2.072 ± 0.024	1.816 ± 0.021
x2 = 0.3003	883.75 ± 0.4	879.73 ± 0.41	874.96 ± 0.42	2.502 ± 0.028	2.162 ± 0.025	1.891 ± 0.022
x2 = 0.3998	875.22 ± 0.42	871.21 ± 0.43	866.62 ± 0.44	2.581 ± 0.029	2.224 ± 0.026	1.938 ± 0.022
x2 = 0.5	865.48 ± 0.44	861.47 ± 0.45	857.07 ± 0.46	2.65 ± 0.03	2.281 ± 0.026	1.984 ± 0.023
x2 = 0.5996	854.41 ± 0.46	850.38 ± 0.47	846.15 ± 0.48	2.69 ± 0.03	2.312 ± 0.027	2.012 ± 0.023
x2 = 0.7	841.49 ± 0.49	837.39 ± 0.5	833.32 ± 0.5	2.704 ± 0.031	2.329 ± 0.027	2.027 ± 0.023
x2 = 0.7991	826.48 ± 0.52	822.27 ± 0.53	818.3 ± 0.53	2.678 ± 0.03	2.309 ± 0.026	2.008 ± 0.023
x2 = 0.8503	817.61 ± 0.53	813.32 ± 0.54	809.39 ± 0.55	2.648 ± 0.03	2.284 ± 0.026	1.986 ± 0.023
x2 = 0.9003	808.06 ± 0.55	803.69 ± 0.56	799.79 ± 0.57	2.615 ± 0.03	2.25 ± 0.026	1.954 ± 0.023
x2 = 0.9489	797.8 ± 0.57	793.36 ± 0.58	789.46 ± 0.59	2.541 ± 0.029	2.183 ± 0.025	1.893 ± 0.022

CN1CCNCC1 [N-methylpiperazine] + CCCCO
Conditions	mass density, 293.15 K [kg/m3]	mass density, 298.15 K [kg/m3]	mass density, 303.15 K [kg/m3]	viscosity, 293.15 K [mPa·s]	viscosity, 298.15 K [mPa·s]	viscosity, 303.15 K [mPa·s]
x2 = 0	903.79 ± 0.36	899.8 ± 0.37	894.54 ± 0.38	2.1 ± 0.024	1.841 ± 0.021	1.624 ± 0.019
x2 = 0.0982	898.89 ± 0.37	894.98 ± 0.38	889.88 ± 0.39	2.247 ± 0.026	1.966 ± 0.023	1.73 ± 0.02
x2 = 0.199	893.13 ± 0.38	889.24 ± 0.39	884.23 ± 0.4	2.431 ± 0.028	2.115 ± 0.024	1.859 ± 0.022
x2 = 0.2966	886.88 ± 0.39	883.01 ± 0.4	878.11 ± 0.41	2.631 ± 0.03	2.283 ± 0.026	2.002 ± 0.023
x2 = 0.3973	879.73 ± 0.41	875.91 ± 0.42	871.16 ± 0.43	2.841 ± 0.032	2.461 ± 0.028	2.153 ± 0.025
x2 = 0.5001	871.61 ± 0.43	867.85 ± 0.44	863.29 ± 0.45	3.018 ± 0.034	2.615 ± 0.03	2.284 ± 0.026
x2 = 0.6004	862.72 ± 0.45	859.01 ± 0.45	854.62 ± 0.46	3.181 ± 0.036	2.751 ± 0.031	2.392 ± 0.027
x2 = 0.6995	852.72 ± 0.47	849.01 ± 0.47	844.76 ± 0.48	3.261 ± 0.037	2.832 ± 0.032	2.471 ± 0.028
x2 = 0.7537	846.6 ± 0.48	842.86 ± 0.49	838.67 ± 0.49	3.272 ± 0.037	2.846 ± 0.032	2.495 ± 0.028
x2 = 0.7936	841.74 ± 0.49	837.97 ± 0.49	833.81 ± 0.5	3.258 ± 0.036	2.841 ± 0.032	2.486 ± 0.028
x2 = 0.8002	840.9 ± 0.49	837.13 ± 0.5	832.97 ± 0.51	3.247 ± 0.036	2.833 ± 0.032	2.489 ± 0.028
x2 = 0.8419	835.38 ± 0.5	831.58 ± 0.51	827.45 ± 0.52	3.218 ± 0.036	2.812 ± 0.032	2.473 ± 0.028
x2 = 0.8997	827 ± 0.52	823.16 ± 0.52	819.05 ± 0.53	3.145 ± 0.035	2.756 ± 0.031	2.427 ± 0.028
